What was measured:
Experiment in all cases: combination Emax (second highest fraction inhibited in the dose matrix, 72 h); higher = more inhibition; extreme values may be limits of the assay
[1] = tested on: CAL-78 (Chondrosarcoma)
Procedure, shortened: (§1)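 Cell lines grown in DMEM/F12 or RPMI with 10% FBS were plated in 1536-well plates and held 24 hours at 37°C, 5% CO2 before 72 hours of exposure to two-drug dose matrices, with DMSO typically at 0.2%. CellTiter-Glo 2.0 luminescence gave viability, which was converted to inhibition. Vehicle wells were set to 0 and blank wells to 1. Combination Emax is the second-highest inhibition in the matrix, and Bliss excess is the observed combination effect minus the expected EA + EB − EA·EB, where EA and EB are the single-agent effects.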

[2] = tested on: COR-L23 (Non-Small Cell Lung Carcinoma)
Procedure, shortened: as §1

[3] = tested on: CTV-1 (T-Lymphoblastic Leukemia)
Procedure, shortened: as §1

[4] = tested on: EM-2 (Chronic Myelogenous Leukemia)
Procedure, shortened: as §1

[5] = tested on: HCC2157 (Breast Carcinoma)
Procedure, shortened: as §1

[6] = tested on: J82 (Bladder Carcinoma)
Procedure, shortened: as §1

[7] = tested on: TGBC24TKB (Biliary Tract Carcinoma)
Procedure, shortened: as §1

[8] = tested on: COR-L95 (Small Cell Lung Carcinoma)
Procedure, shortened: as §1

[9] = tested on: DB (B-Cell Non-Hodgkin's Lymphoma)
Procedure, shortened: as §1

[10] = tested on: DOV13 (Ovarian Carcinoma)
Procedure, shortened: as §1

[11] = tested on: DSH1 (Bladder Carcinoma)
Procedure, shortened: as §1

[12] = tested on: KARPAS-1106P (B-Cell Non-Hodgkin's Lymphoma)
Procedure, shortened: as §1

[13] = tested on: LS-513 (Colorectal Carcinoma)
Procedure, shortened: as §1

[14] = tested on: MDA-MB-157 (Breast Carcinoma)
Procedure, shortened: as §1

[15] = tested on: MFH-ino (Other Solid Carcinomas)
Procedure, shortened: as §1

[16] = tested on: NCI-H2595 (Mesothelioma)
Procedure, shortened: as §1

[17] = tested on: OCI-AML2 (Acute Myeloid Leukemia)
Procedure, shortened: as §1

[18] = tested on: SK-N-FI (Neuroblastoma)
Procedure, shortened: as §1

[19] = tested on: SW1990 (Pancreatic Carcinoma)
Procedure, shortened: as §1

[20] = tested on: TE-5 (Esophageal Squamous Cell Carcinoma)
Procedure, shortened: as §1

SMILES | combination Emax [1] | combination Emax [2] | combination Emax [3] | combination Emax [4] | combination Emax [5] | combination Emax [6] | combination Emax [7] | combination Emax [8] | combination Emax [9] | combination Emax [10] | combination Emax [11] | combination Emax [12] | combination Emax [13] | combination Emax [14] | combination Emax [15] | combination Emax [16] | combination Emax [17] | combination Emax [18] | combination Emax [19] | combination Emax [20]
CC(=O)c1c(C)c2cnc(Nc3ccc(N4CCNCC4)cn3)nc2n(C2CCCC2)c1=O [Palbociclib] + CN(CC[C@H](CSC1=CC=CC=C1)NC2=C(C=C(C=C2)S(=O)(=O)NC(=O)C3=CC=C(C=C3)N4CCC(CC4)[C@H](C5=CC=CC=C5C6=CC=C(C=C6)Cl)O)S(=O)(=O)C(F)(F)F)CCO [AZD4320] (first compound max 10 µM, 7x7, partner max 1 µM) | 0.709 | 0.298 | 0.94 | 0.95 | 0.994 | 0.22 | 0.736 |  |  |  |  |  |  |  |  |  |  |  |  | 
CCc1c2c(nc3ccc(O)cc13)-c1cc3c(c(=O)n1C2)COC(=O)[C@]3(O)CC [SN-38] + O=C(c1cc(Cc2n[nH]c(=O)c3ccccc23)ccc1F)N1CCN(C(=O)C2CC2)CC1 [Olaparib] (first compound max 0.3 µM, 7x7, partner max 10 µM) |  | 0.675 | 1 | 1 |  | 0.861 | 0.472 | 0.85 | 0.96 | 0.939 | 0.915 | 0.943 | 0.665 | 0.725 | 0.652 | 0.28 | 0.999 | 0.518 | 0.419 | 0.758
C=CCn1c(=O)c2cnc(Nc3ccc(N4CCN(C)CC4)cc3)nc2n1-c1cccc(C(C)(C)O)n1 [AZD1775] + C1CN(CCC1(C(=O)N[C@@H](CCO)C2=CC=C(C=C2)Cl)N)C3=NC=NC4=C3C=CN4 [Capivasertib] (first compound max 3 µM, partner max 3 µM) | 0.733 | 0.895 | 0.983 | 0.948 |  | 0.468 | 0.811 | 0.666 | 0.893 | 0.775 | 0.789 | 0.909 | 0.81 | 0.837 | 0.35 | 0.281 | 0.988 | 0.628 | 0.584 | 0.66
COc1nnc2ccc(N3CCC(c4ccc(OCCN5CCN(C)C(=O)[C@H]5C)cc4)CC3)nn12 [AZD5153] + CN(CC[C@H](CSC1=CC=CC=C1)NC2=C(C=C(C=C2)S(=O)(=O)NC(=O)C3=CC=C(C=C3)N4CCC(CC4)[C@H](C5=CC=CC=C5C6=CC=C(C=C6)Cl)O)S(=O)(=O)C(F)(F)F)CCO [AZD4320] (first compound max 1 µM, 7x7, partner max 1 µM) | 0.8 | 0.424 | 0.933 | 0.988 | 1 | 0.397 | 0.932 |  |  |  |  |  |  |  |  |  |  |  |  | 
C[C@@H](c1ccc2nccn2c1)n1nnc2ncc(-c3cnn(C)c3)nc21 [Savolitinib] + CN(CC[C@H](CSC1=CC=CC=C1)NC2=C(C=C(C=C2)S(=O)(=O)NC(=O)C3=CC=C(C=C3)N4CCC(CC4)[C@H](C5=CC=CC=C5C6=CC=C(C=C6)Cl)O)S(=O)(=O)C(F)(F)F)CCO [AZD4320] (first compound max 1 µM, 7x7, partner max 1 µM) | 0.457 | 0.184 | 0.455 | 0.971 | 0.934 | 0.604 | 0.561 |  |  |  |  |  |  |  |  |  |  |  |  | 
CN(CCO)CC[C@H](CSc1ccccc1)Nc1ccc(S(=O)(=O)NC(=O)c2ccc(N3CCC([C@@H](O)c4ccccc4-c4ccc(Cl)cc4)CC3)cc2)cc1S(=O)(=O)C(F)(F)F [AZD4320] + C=CCn1c(=O)c2cnc(Nc3ccc(N4CCN(C)CC4)cc3)nc2n1-c1cccc(C(C)(C)O)n1 [AZD1775] (first compound max 1 µM, partner max 1 µM) | 0.846 | 0.656 |  | 0.99 | 0.969 | 0.117 | 0.682 | 1 | 1 | 0.999 | 0.799 | 0.963 | 0.866 | 0.67 | 0.237 | 0.141 | 1 | 0.629 | 0.757 | 0.663
Cc1c2c(nn1C)CSCc1cc(n(C)n1)CSc1cc(c3ccccc3c1)OCCCc1c(C(=O)O)n(C)c3c-2c(Cl)ccc13 [AZD5991] + CN(C)CCCOc1ccc(-c2ccc3ncc4c(c3c2)n(C2CCOCC2)c(=O)n4C)cn1 [AZD0156] (first compound max 1 µM, 7x7, partner max 1 µM) | 0.786 |  | 0.301 | 0.394 | 0.98 | 0.22 | 0.165 | 0.378 | 0.974 | 0.324 | 0.638 | 0.925 | 0.275 | 0.69 | 0.22 | 0.328 | 0.961 | 0.443 | 0.241 | 0.266

— the supplement of paper PMC11061612
